pIC50: −log10 of the molar value. Where a name gives a salt, the structure may show the parent alone. Read-outs that look alike come from different tables or passages of the source.
Assays:
Format in all cases: cell-based
Neisseria gonorrhoeae = experiment: EC50 determination: plate-based broth growth assay (absorbance at 600 nm) of Neisseria gonorrhoeae; details: absorbance 600 nm after 20 hours at 37° C./5% CO2, read-out: IC50 (Inhibitory concentration) against Neisseria gonorrhoeae
How it was run: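 Mid-log culture diluted to ~10^5 cells/ml as inoculum and grown 20 hours at 37° C./5% CO2 across a 10-point compound dilution series. Growth read as absorbance at 600 nm; EC50 taken from transformed data as the concentration giving 50% response relative to no-compound controls.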

Staphylococcus aureus = experiment: EC50 determination: broth growth assay of Staphylococcus aureus (Isosensitest broth); details: Table 1, panel of bacteria, 37° C., read-out: IC50 concentration against Staphylococcus aureus
Protocol: (§1) Actively growing Neisseria gonorrhoeae on GC agar (based on; Spence et. al. (2008): Curr. Protoc. Microbiol. 8:4A.1.1-4A.1.26) plates are harvested and transferred to GC broth (based on; Spence et al (2008): Curr. Protoc. Microbiol. 8:4A.1.1-4A.1.26) to generate a liquid stock. This culture is allowed to establish and grow to mid-log phase (at 37° C./5% CO2), finally this culture is diluted (˜10^5 cells/ml) to generate a seed inoculum to establish plate-based broth assays. EC50 values were determined by assaying growth (absorbance read at 600 nm, after 20 hours at 37° C./5% CO2) of Neisseria gonorrhoeae across a 10-point dilution series of the test compound. The EC50 value is determined from transformed data to identify the concentration of compound giving a 50% response relative to control samples (no compound).
(§2) EC50 determination for Staphylococcus aureus and Enterococcus Spp. followed a similar procedure but were conducted using Isosensitest broth (Oxoid) with incubations at 37° C. in atmospheric air. Final absorbance reads were conducted during the late exponential growth phase.

Enterococcus Spp. = experiment: EC50 determination: broth growth assay of Enterococcus Spp. (Isosensitest broth); details: Table 1, panel of bacteria, 37° C.
Protocol: as §1, §2

[1] = Enterococcus faecalis, read-out: IC50 concentration against Entercoccus faecalis
[2] = Enterococcus faecium, read-out: IC50 concentration against Enterococcus faecium

Structure (SMILES) | pIC50 (Neisseria gonorrhoeae) | pIC50 (Staphylococcus aureus) | pIC50 (Enterococcus Spp.; [1]) | pIC50 (Enterococcus Spp.; [2])
Clc1ccc2nc(Nc3nc4cnccc4o3)oc2c1 [Example 159, N-(6-Chlorobenzo[d]oxazol-2-yl)oxazolo[4,5-c]pyridin-2-amine] | ≥ 4.00 | ≥ 4.00 | ≥ 4.00 | ≥ 4.00
FC(F)(F)c1ccc2oc(Nc3nnco3)nc2c1 [Example 67, N-(1,3,4-Oxadiazol-2-yl)-5-(trifluoromethyl)benzo[d]oxazol-2-amine] | ≥ 7.00 | ≥ 6.00 | ≥ 5.00 | ≥ 6.00
Cc1nnc(Nc2nc3cc(C(F)(F)F)ccc3o2)[nH]1 [Example 117, N-(5-Methyl-4H-1,2,4-triazol-3-yl)-5-(trifluoromethyl)benzo[d]oxazol-2-amine] | ≥ 6.00 | ≥ 6.00 | ≥ 5.00 | ≥ 5.00
FC(F)(F)c1cc2[nH]c(Nc3nc4ccccc4o3)nc2cn1 [Example 170, N-(6-(Trifluoromethyl)-1H-imidazo[4,5-c]pyridin-2-yl)benzo[d]oxazol-2-amine] | ≥ 6.00 | ≥ 5.00 | ≥ 5.00 | ≥ 5.00
FC(F)(F)c1cc2oc(Nc3nc4cc(Cl)ccc4o3)nc2cn1 [Example 165, N-(5-Chlorobenzo[d]oxazol-2-yl)-6-(trifluoromethyl) oxazolo[4,5-c]pyridin-2-amine] | ≥ 6.00 | ≥ 5.00 | ≥ 5.00 | ≥ 5.00
FC(F)(F)c1cc2nc(Nc3nnc(CN4CCCC4)o3)oc2cc1Cl [Example 80, 6-Chloro-N-(5-(pyrrolidin-1-ylmethyl)-1,3,4-oxadiazol-2-yl)-5-(trifluoromethyl)benzo[d]oxazol-2-amine] | ≥ 7.00 | ≥ 6.00 | ≥ 6.00 | ≥ 5.00
FC(F)(F)c1ccc2oc(Nc3nc4cnccc4o3)nc2c1 [Example 60, N-(5-(triFluoromethyl)benzo[d]oxazol-2-yl)oxazolo[4,5-c]pyridin-2-amine] | ≥ 7.00 | ≥ 5.00 | ≥ 6.00 | ≥ 5.00
FC(F)(F)c1ccc2nc(Nc3nnc(C4CC4)o3)oc2c1 [Example 105, N-(5-Cyclopropyl-1,3,4-oxadiazol-2-yl)-6-(trifluoromethyl)benzo[d]oxazol-2-amine] | ≥ 7.00 | ≥ 6.00 | ≥ 6.00 | ≥ 6.00
CCOC(=O)c1csc(Nc2nc3cc(C(F)(F)F)ccc3o2)n1 [Example 8, Ethyl 2-((5-(trifluoromethyl)benzo[d]oxazol-2-yl)amino)thiazole-4-carboxylate] | ≥ 6.00 | – | – | –
Fc1ccc2oc(Nc3nnco3)nc2c1 [Example 66, 5-Fluoro-N-(1,3,4-oxadiazol-2-yl)benzo[d]oxazol-2-amine] | ≥ 6.00 | – | – | –
Cc1nc(Nc2nc3cc(C(F)(F)F)ccc3o2)oc1C [Example 113, N-(4,5-Dimethyloxazol-2-yl)-5-(trifluoromethyl)benzo[d]oxazol-2-amine] | ≥ 6.00 | – | – | –
CN(C)Cc1nnc(Nc2nc3ccc(Cl)cc3o2)o1 [Example 81, 6-Chloro-N-(5-((dimethylamino)methyl)-1,3,4-oxadiazol-2-yl)benzo[d]oxazol-2-amine] | ≥ 6.00 | – | – | –
O=C(NC1CC1)c1csc(Nc2nc3ccc(C(F)(F)F)cc3o2)n1 [Example 26, N-Cyclopropyl-2-((6-(trifluoromethyl)benzo[d]oxazol-2-yl)amino)thiazole-4-carboxamide] | ≥ 7.00 | – | – | –
Cc1nnc(Nc2nc3cc(Cl)ccc3o2)o1 [Example 50, 5-Chloro-N-(5-methyl-1,3,4-oxadiazol-2-yl)benzo[d]oxazol-2-amine] | ≥ 7.00 | – | – | –
Clc1ccc2nc(Nc3cnoc3)oc2c1 [Example 225, 6-Chloro-N-(isoxazol-4-yl)benzo[d]oxazol-2-amine] | ≥ 4.00 | – | – | –
N#Cc1nnc(Nc2nc3cc(F)ccc3o2)o1 [Example 219, 5-((5-Fluorobenzo[d]oxazol-2-yl)amino)-1,3,4-oxadiazole-2-carbonitrile] | ≥ 6.00 | – | – | –
O=C(Nc1ccccc1)c1csc(Nc2nc3cc(C(F)(F)F)ccc3o2)n1 [Example 5, N-Phenyl-2-((5-(trifluoromethyl)benzo[d]oxazol-2-yl)amino)thiazole-4-carboxamide] | ≥ 6.00 | – | – | –
Cc1cc2nc(Nc3nnco3)oc2cc1Cl [Example 188, 6-Chloro-5-methyl-N-(1,3,4-oxadiazol-2-yl)benzo[d]ox-azol-2-amine] | ≥ 7.00 | – | – | –
FC(F)(F)c1ccc2nc(Nc3ncc(N4CCOCC4)s3)oc2c1 [Example 27, N-(5-Morpholinothiazol-2-yl)-6-(trifluoromethyl)benzo[d]oxazol-2-amine] | ≥ 6.00 | – | – | –
N#Cc1nnc(Nc2nc3ccc(Cl)cc3o2)o1 [Example 217, 5-((6-Chlorobenzo[d]oxazol-2-yl)amino)-1,3,4-oxadiazole-2-carbonitrile] | ≥ 7.00 | – | – | –
Cn1c(Nc2nnco2)nc2cc(C(F)(F)F)ccc21 [Example 69, N-(1-methyl-5-(trifluoromethyl)-1H-benzo[d]imidazol-2-yl)-1,3,4-oxadiazol-2-amine] | ≥ 6.00 | – | – | –
Clc1ccc2nc(Nc3nnc(CN4CCCC4)o3)oc2c1 [Example 77, 6-Chloro-N-(5-(pyrrolidin-1-ylmethyl)-1,3,4-oxadiazol-2-yl)benzo[d]oxazol-2-amine] | ≥ 7.00 | – | – | –
O=C(NC1CC1)c1coc(Nc2nc3cc(C(F)(F)F)ccc3o2)n1 [Example 24, N-Cyclopropyl-2-((5-(trifluoromethyl)benzo[d]oxazol-2-yl)amino)oxazole-4-carboxamide] | ≥ 6.00 | – | – | –
Cn1cnnc1Nc1nc2cc(C(F)(F)F)ccc2o1 [Example 41, N-(4-methyl-4H-1,2,4-triazol-3-yl)-5-(trifluoromethyl)benzo[d]oxazol-2-amine] | ≥ 6.00 | – | – | –
Cc1nnc(Nc2nc3cc(Cl)ccc3[nH]2)o1 [Example 85, N-(5-Chloro-1H-benzo[d]imidazol-2-yl)-5-methyl-1,3,4-oxadiazol-2-amine] | ≥ 6.00 | – | – | –
Clc1ccc2[nH]c(Nc3nc4cnccc4o3)nc2c1 [Example 168, N-(5-Chloro-1H-benzo[d]imidazol-2-yl)oxazolo [4,5-c]pyridin-2-amine] | ≥ 6.00 | – | – | –
FC(F)(F)c1ccc2nc(Nc3ncc(N4CCNCC4)s3)oc2c1 [Example 49, N-(5-(Piperazin-1-yl)thiazol-2-yl)-6-(trifluoromethyl)benzo[d]oxazol-2-amine hydrochloride] | ≥ 6.00 | – | – | –
CN(C)CCNC(=O)c1csc(Nc2nc3cc(Cl)ccc3o2)n1 [Example 97, 2-((5-Chlorobenzo[d]oxazol-2-yl)amino)-N-(2-(dimethylamino)ethyl)thiazole-4-carboxamide] | ≥ 6.00 | – | – | –

Source: patent US20190194179A1, “ANTIBIOTIC COMPOUNDS” (DISCUVA LTD., priority 2016, published 2019)
